Measurements as given in PMC5814560, “6-Thioguanine is a noncompetitive and slow binding inhibitor of human deubiquitinating protease USP2” (Scientific Reports, 2018).

Experiments:
[1] = target: T1, USP2 (ubiquitin-specific protease 2) (Homo sapiens, UniProt O75604); assay: Ub-AFC deubiquitination kinetics, noncompetitive fit; very weak, called ineffective by the authors; type: biochemical; parameters: catalytic domain, residues 258–605; conditions: read-out: Kis
Target sequence in this assay (O75604 258-605): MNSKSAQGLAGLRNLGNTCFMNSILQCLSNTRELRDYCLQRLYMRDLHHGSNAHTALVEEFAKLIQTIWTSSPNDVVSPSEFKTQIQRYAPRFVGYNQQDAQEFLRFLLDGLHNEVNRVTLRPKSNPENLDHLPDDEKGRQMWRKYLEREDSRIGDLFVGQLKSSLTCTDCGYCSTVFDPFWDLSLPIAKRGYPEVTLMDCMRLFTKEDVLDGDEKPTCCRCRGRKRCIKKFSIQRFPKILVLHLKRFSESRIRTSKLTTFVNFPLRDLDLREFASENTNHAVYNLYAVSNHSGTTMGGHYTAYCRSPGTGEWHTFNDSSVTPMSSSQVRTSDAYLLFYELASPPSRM

[2] = target: T1, USP2 (ubiquitin-specific protease 2); assay: X-ray crystal structure (soak, […] Å, about […] occupancy); Ub-AFC deubiquitination kinetics (Kis […], IC50 […]); type: biochemical; parameters: catalytic domain, residues 258–605; with ubiquitin (Ub) in the crystal
Target sequence in this assay (O75604 258-605, other chains not shown): as the sequence (O75604 258-605) above

Ki [1] | SMILES | Ki [2]
349 ± 23.7 µM | Sc1ncnc2nc[nH]c12 [6MP, 6-mercaptopurine] | –
– | Nc1nc2nc[nH]c2c(=S)[nH]1 [6TG, 6-thioguanine] | 24.6 ± 1.8 µM
